Test results published in patent publication US7880010B2, “Crystalline forms of a dimethylphenyl compound” (Theravance, Inc., priority 2006, dated 2011).

Tests used:
hM5 muscarinic receptor = biological target: T1, hM5 muscarinic receptor (Homo sapiens, UniProt P08912); assay: Radioligand binding assay for muscarinic receptors ([3H]-NMS displacement); details: M5 muscarinic receptor subtype, CHO cell membranes, [3H]-NMS 1 nM
T1 construct: purchased PerkinElmer, Inc. (Wellesley, Mass.); host or cells: CHO cell membranes
T1 sequence (P08912 1-532): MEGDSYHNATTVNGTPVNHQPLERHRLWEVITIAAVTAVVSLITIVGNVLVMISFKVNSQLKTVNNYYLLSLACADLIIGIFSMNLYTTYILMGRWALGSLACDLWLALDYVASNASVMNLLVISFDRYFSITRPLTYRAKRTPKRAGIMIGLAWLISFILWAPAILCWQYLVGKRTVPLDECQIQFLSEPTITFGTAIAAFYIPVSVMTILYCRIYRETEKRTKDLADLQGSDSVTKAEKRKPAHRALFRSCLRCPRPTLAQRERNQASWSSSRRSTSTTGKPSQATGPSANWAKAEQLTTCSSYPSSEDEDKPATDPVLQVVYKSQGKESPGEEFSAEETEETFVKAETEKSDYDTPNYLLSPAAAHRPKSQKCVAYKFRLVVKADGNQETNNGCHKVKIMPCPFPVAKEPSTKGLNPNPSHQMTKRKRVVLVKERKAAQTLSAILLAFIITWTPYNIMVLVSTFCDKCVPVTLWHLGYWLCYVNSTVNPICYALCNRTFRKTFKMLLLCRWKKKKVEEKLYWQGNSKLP
Protocol: (§1) CHO cell lines stably expressing cloned human hM1, hM2, hM3 and hM4 muscarinic receptor subtypes, respectively, were grown to near confluency in Hams F-12 media supplemented with 10% FBS and 250 μg/mL Geneticin. The cells were grown in a 5% CO2, 37° C. incubator and lifted with 2 mM EDTA in dPBS. Cells were collected by 5 minute centrifugation at 650×g, and cell pellets were either stored frozen at −80° C. or membranes were prepared immediately for use. For membrane preparation, cell pellets were resuspended in lysis buffer and homogenized with a Polytron PT-2100 tissue disrupter (Kinematica AG; 20 seconds×2 bursts). Crude membranes were centrifuged at 40,000×g for 15 minutes at 4° C. The membrane pellet was then resuspended with re-suspension buffer and homogenized again with the Polytron tissue disrupter. The protein concentration of the membrane suspension was determined by the method described in Lowry et al., 1951, Journal of Biochemistry, 193, 265. All membranes were stored frozen in aliquots at −80° C. or used immediately. Aliquots of prepared hM5 receptor membranes were purchased directly from PerkinElmer, Inc. (Wellesley, Mass.) and stored at −80° C. until use.
(§2) Radioligand binding assays for cloned muscarinic receptors were performed in 96-well microtiter plates in a total assay volume of 100 μL. CHO cell membranes stably expressing either the hM1, hM2, hM3, hM4 or hM5 muscarinic subtype were diluted in assay buffer to the following specific target protein concentrations (μg/well): 10 μg for hM1, 10-15 μg for hM2, 10-20 μg for hM3, 10-20 μg for hM4, and 10-12 μg for hM5 to get similar signals (cpm). The membranes were briefly homogenized using a Polytron tissue disrupter (10 seconds) prior to assay plate addition. Saturation binding studies for determining KD values of the radioligand were performed using L-[N-methyl-^3H]scopolamine methyl chloride ([^3H]-NMS) (TRK666, 84.0 Ci/mmol, Amersham Pharmacia Biotech, Buckinghamshire, England) at concentrations ranging from 0.001 nM to 20 nM. Displacement assays for determination of Ki values of test compounds were performed with [^3H]-NMS at 1 nM and eleven different test compound concentrations. The test compounds were initially dissolved to a concentration of 400 μM in dilution buffer and then serially diluted 5× with dilution buffer to final concentrations ranging from 10 pM to 100 μM. The addition order and volumes to the assay plates were as follows: 25 μL radioligand, 25 μL diluted test compound, and 50 μL membranes. Assay plates were incubated for 60 minutes at 37° C. Binding reactions were terminated by rapid filtration over GF/B glass fiber filter plates (PerkinElmer, Inc.) pre-treated in 1% BSA. Filter plates were rinsed three times with wash buffer (10 mM HEPES) to remove unbound radioactivity. The plates were then air-dried and 50 μL Microscint-20 liquid scintillation fluid (PerkinElmer, Inc.) were added to each well. The plates were then counted in a PerkinElmer Topcount liquid scintillation counter (PerkinElmer, Inc.). Binding data were analyzed by nonlinear regression analysis with the GraphPad Prism Software package (GraphPad Software, Inc., San Diego, Calif.) using the one-site competition model. Ki values for test compounds were calculated from observed IC50 values and the KD value of the radioligand using the Cheng-Prusoff equation (Cheng Y; Prusoff W H. (1973) Biochemical Pharmacology, 22(23):3099-108). […]

hM2 muscarinic receptor = biological target: T2, hM2 muscarinic receptor (Homo sapiens, UniProt P08172); assay: as above; details: M2 muscarinic receptor subtype, CHO cell membranes, [3H]-NMS 1 nM
T2 construct: expressed in transfected cells; host or cells: CHO / CHO-K1
T2 sequence (P08172 1-466): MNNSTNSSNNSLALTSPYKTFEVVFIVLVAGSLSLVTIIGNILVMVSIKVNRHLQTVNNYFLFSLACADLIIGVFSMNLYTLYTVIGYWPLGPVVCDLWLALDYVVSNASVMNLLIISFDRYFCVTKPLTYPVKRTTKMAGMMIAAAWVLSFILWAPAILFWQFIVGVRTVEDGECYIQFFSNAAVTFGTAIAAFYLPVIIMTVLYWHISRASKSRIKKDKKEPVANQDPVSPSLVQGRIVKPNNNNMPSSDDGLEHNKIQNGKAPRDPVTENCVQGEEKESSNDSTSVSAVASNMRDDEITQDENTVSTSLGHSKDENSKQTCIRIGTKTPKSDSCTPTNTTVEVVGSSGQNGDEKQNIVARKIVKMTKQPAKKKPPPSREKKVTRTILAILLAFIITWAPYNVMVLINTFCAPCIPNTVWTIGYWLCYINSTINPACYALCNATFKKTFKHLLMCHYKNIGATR
Protocol: as §1, §2

**Q.** With Cc1cc(NC(=O)CCN2CCC(OC(=O)Nc3ccccc3-c3ccccc3)CC2)c(C)cc1CNC[C@H](O)c1ccc(O)c(NC=O)c1 [compound of formula I, biphenyl-2-ylcarbamic acid 1-[2-(4-{[(R)-2-(3-formylamino-4-hydroxyphenyl)-2-hydroxyethylamino]methyl}-2,5-dimethylphenylcarbamoyl)ethyl]-piperidin-4-yl ester] as the molecule, how does the Ki (hM5 muscarinic receptor) read?
**A.** < 10 nM

**Q.** What about the Ki (hM2 muscarinic receptor) of the same molecule?
**A.** < 10 nM
